US12251364B2, “Treating non-alcoholic steatohepatitis with cck inhibitors” (priority 2018, dated 2025)
“Also recorded” adds a separate entry of the source. Values belong to the compound of their own block, whether it stands above or below them.

Experiments:
[1] = system: mice on 75%-CDE diet (NASH, fibrosis and HCC); experiment: Prevention study: CDE diet-induced NASH in mice, proglumide in drinking water from start of diet; assay type: in vivo, mouse (female C57BL/6)
Experimental: All mouse studies were performed in an ethical fashion and approved by the Institutional Animal Care and Use Committee, protocol #2016-1193 for animal research by Georgetown University. Female C57BL/6 mice (body weight of >20 g) were obtained from Charles River Laboratory (Germantown, MD). Mice were housed with five per cage with filter-top cages and housing light cycled q12 hrs; on-off. […] The first group received a modified Choline Deficient Diet with 75% Ethionine supplemented diet (CDE) as previously described by […] et al. “A modified choline-deficient, ethionine-supplemented diet reduces morbidity and retains a liver progenitor cell response in mice,” Dis Model Mech 8:1635-1641 (2015). […] The control mice received the same diet with choline. Both diets contained casein as the major source of protein and lard (saturated fat) as the primary source of fat. The diet composition is shown in Table 1 and is very similar to the Western diet (Roberts et al. “Western diet-induced hepatic steatosis and alterations in the liver transcriptome in adult Brown-Norway rats,” BMC Gastroenterol. 15:151 (2015)) where the diet consists of a high fat and high sugar and is often used in experimental animal diets to induce NAFLD. The food intake was measured by weighing food consumed to assure mice were eating equal amounts of food in each group, and animals ate ad libitum. Some mice on both diets were treated with the CCK receptor antagonist proglumide (Tocris Bioscience, Bristol, UK) at a concentration of 0.1 mg/ml and the estimated amount ingested per mouse was 30 mg/kg/d that was previously shown to block the CCK receptor (Smith et al. “Cholecystokinin receptor antagonist halts progression of pancreatic cancer precursor lesions and fibrosis in mice,” Pancreas 43:1050-1059 (2014)). Another cohort received untreated drinking water. The study design included two different parts: a “prevention study” and a “reversal study” (FIG. 1). In the prevention study, the goal was to determine if treatment with proglumide could prevent NASH, fibrosis and HCC if started at the same time of the initiation of the high fat CDE diet. Initially mice were randomized into one of four treatment group (FIG. 1). Sixty-five mice received the 75%-CDE diet and untreated drinking water (CDE/Reg). Of these (N=5 each) mice were ethically euthanized and livers dissected and analyzed histologically to assess for evidence of NASH at weeks 4 and 8. When NASH was becoming apparent, mice were continued on this diet and some (N=10) were euthanized at week 12 and some (N=25) were euthanized at week 18. Five mice died in the CDE/Reg diet in the first 12 weeks. A parallel cohort of mice (N=25) were also given the CDE diet but their drinking water was treated with the CCK-receptor antagonist proglumide. In this cohort, some (N=10) were euthanized, blood drawn, and liver examined histologically at week 12. The remainder (N=15) were euthanized and examined at week 18 to compare to the CDE/Reg group. Twenty mice each were treated with the control diet, and half (N=10) in this group received proglumide water and half received untreated drinking water. Half of the control mice were euthanized at the first time point of 12 weeks and the remainder was euthanized at the end of the experiment at 18 weeks. Subgroups of mice were ethically euthanized after CO2 asphyxiation and cervical dislocation at one of 4 different time points: weeks 4, 8, 12, or 18. Blood was collected by pericardiac puncture and centrifuged. Serum was analyzed by VRL Laboratories (Gaithersburg, MD). The following liver tests were evaluated and the normal range for mouse is shown: Alkaline phosphatase (35-275 u/L); Alanine aminotransferase, ALT (17-129 u/L); Aspartate aminotransferase, AST (46-392 u/L); and total bilirubin (0-0.9 mg/dL). The liver tissues were fixed in 4% paraformaldehyde, paraffin embedded, and 8 μm sections were cut. Mounted sections were stained with Hematoxylin & Eosin or Masson's trichrome. […]

[2] = system: mice on control high fat diet; experiment: Control high fat diet with choline, proglumide-treated versus untreated water; assay type: in vivo, mouse (female C57BL/6)
Experimental: All mouse studies were performed in an ethical fashion and approved by the Institutional Animal Care and Use Committee, protocol #2016-1193 for animal research by Georgetown University. Female C57BL/6 mice (body weight of >20 g) were obtained from Charles River Laboratory (Germantown, MD). Mice were housed with five per cage with filter-top cages and housing light cycled q12 hrs; on-off.
Mice were fed one of two custom high fat diets from MP Biomedicals, LLC (Solon, Ohio). The first group received a modified Choline Deficient Diet with 75% Ethionine supplemented diet (CDE) as previously described by Passman et al. “A modified choline-deficient, ethionine-supplemented diet reduces morbidity and retains a liver progenitor cell response in mice,” Dis Model Mech 8:1635-1641 (2015). […] The control mice received the same diet with choline. Both diets contained casein as the major source of protein and lard (saturated fat) as the primary source of fat. […] The food intake was measured by weighing food consumed to assure mice were eating equal amounts of food in each group, and animals ate ad libitum. […]
Subgroups of mice were ethically euthanized after CO2 asphyxiation and cervical dislocation at one of 4 different time points: weeks 4, 8, 12, or 18. […] Serum was analyzed by VRL Laboratories (Gaithersburg, MD). The following liver tests were evaluated and the normal range for mouse is shown: Alkaline phosphatase (35-275 u/L); Alanine aminotransferase, ALT (17-129 u/L); Aspartate aminotransferase, AST (46-392 u/L); and total bilirubin (0-0.9 mg/dL).
The liver tissues were fixed in 4% paraformaldehyde, paraffin embedded, and 8 μm sections were cut. […] A Liver pathologist blinded to the treatments and time period scored tissues for inflammation, fibrosis, steatosis, and whether there was evidence of dysplastic nodules or cancer (Table 2). Histology was scored for grade of inflammation (0-3), fibrosis (0-4), steatosis (0-3), balloon degeneration (0-2) and dysplasia or cancer (0-2). […]

[3] = system: mice on CDE diet with established NASH; experiment: Reversal (recovery) study: established NASH after 12 weeks of CDE diet, then proglumide for 6 weeks; assay type: in vivo, mouse (female C57BL/6)
Experimental: All mouse studies were performed in an ethical fashion and approved by the Institutional Animal Care and Use Committee, protocol #2016-1193 for animal research by Georgetown University. Female C57BL/6 mice (body weight of >20 g) were obtained from Charles River Laboratory (Germantown, MD). Mice were housed with five per cage with filter-top cages and housing light cycled q12 hrs; on-off. […] The first group received a modified Choline Deficient Diet with 75% Ethionine supplemented diet (CDE) as previously described by […] et al. “A modified choline-deficient, ethionine-supplemented diet reduces morbidity and retains a liver progenitor cell response in mice,” Dis Model Mech 8:1635-1641 (2015). […] The control mice received the same diet with choline. Both diets contained casein as the major source of protein and lard (saturated fat) as the primary source of fat. The diet composition is shown in Table 1 and is very similar to the Western diet (Roberts et al. “Western diet-induced hepatic steatosis and alterations in the liver transcriptome in adult Brown-Norway rats,” BMC Gastroenterol. 15:151 (2015)) where the diet consists of a high fat and high sugar and is often used in experimental animal diets to induce NAFLD. The food intake was measured by weighing food consumed to assure mice were eating equal amounts of food in each group, and animals ate ad libitum. Some mice on both diets were treated with the CCK receptor antagonist proglumide (Tocris Bioscience, Bristol, UK) at a concentration of 0.1 mg/ml and the estimated amount ingested per mouse was 30 mg/kg/d that was previously shown to block the CCK receptor (Smith et al. “Cholecystokinin receptor antagonist halts progression of pancreatic cancer precursor lesions and fibrosis in mice,” Pancreas 43:1050-1059 (2014)). Another cohort received untreated drinking water. The reversal study, took mice that had been on the CDE diet and untreated water (CDE/Reg) for 12 weeks (a time determined to result in the mice having NASH histologically and biochemical hepatitis). Mice were randomly allocated to one of two groups at 12 weeks. The first group (N=15) continued on the CDE diet and untreated water and the second group (N=15) also continued on the CDE diet but then received proglumide in the drinking water at the same concentration as the prevention study (0.1 mg/ml). The purpose of the reversal study was to see if proglumide could reverse any of the histologic and biochemical abnormalities of NASH from the 12-week CDE/regular water diet. The other group continued on the CDE diet with untreated drinking water. The animals in each group were weighed weekly. At the termination of the experiment the animal body weight and liver weight were recorded. Subgroups of mice were ethically euthanized after CO2 asphyxiation and cervical dislocation at one of 4 different time points: weeks 4, 8, 12, or 18. Blood was collected by pericardiac puncture and centrifuged. Serum was analyzed by VRL Laboratories (Gaithersburg, MD). The following liver tests were evaluated and the normal range for mouse is shown: Alkaline phosphatase (35-275 u/L); Alanine aminotransferase, ALT (17-129 u/L); Aspartate aminotransferase, AST (46-392 u/L); and total bilirubin (0-0.9 mg/dL). The liver tissues were fixed in 4% paraformaldehyde, paraffin embedded, and 8 μm sections were cut. Mounted sections were stained with Hematoxylin & Eosin or Masson's trichrome. A Liver pathologist blinded to the treatments and time period scored tissues for inflammation, fibrosis, steatosis, and whether there was evidence of dysplastic nodules or cancer (Table 2). Histology was scored for grade of inflammation (0-3), fibrosis (0-4), steatosis (0-3), balloon degeneration (0-2) and dysplasia or cancer (0-2). For analysis, a NASH score was defined as the combination of the steatosis and the balloon degeneration score. […]

[4] = PIVENS trial; cited from earlier work
[5] = CDE/Prog vs CDE/Reg, weeks 12 and 18
[6] = CDE/Reg 12 weeks then proglumide water 6 weeks

abnormalities in hepatic blood tests or weight ([2]; control diet with proglumide vs untreated drinking water): no evidence of abnormalities
Compound: CCCN(CCC)C(=O)C(CCC(=O)O)NC(=O)c1ccccc1 (centres unmarked) [proglumide]
serum AST levels ([1]; CDE diet + proglumide 0.1 mg/ml in drinking water from day 0 (Prevention), vs CDE/Reg): restored to near normal; also recorded: at or near normal levels
ALT serum levels, week 12 ([1]; CDE diet + proglumide water from day 0, week 12): did not prevent elevation
ALT serum levels, week 18 ([1]; CDE diet + proglumide water from day 0, week 18): did decrease ALT values; also recorded: able to prevent this increase only after 18 weeks
serum total bilirubin ([1]; CDE diet + proglumide water from day 0, weeks 12 and 18, vs CDE/Reg): completely prevented; also recorded: prevented bilirubin level increases
alkaline phosphatase blood levels ([1]; CDE diet + proglumide water, vs CDE/Reg): not prevented or reversed; also recorded: did not decrease alkaline phosphatase
histologic features/changes of NASH [1, 5]: significantly decreased; also recorded: prevented
histologic fibrosis score [1, 5]: prevented; also recorded: decreased fibrosis
histologic inflammation score [1, 5]: prevented; also recorded: marked decrease in inflammation; also recorded: decreased inflammation
histologic steatosis score [1, 5]: prevented; also recorded: decreased steatosis
balloon degeneration ([1]; CDE/Prog, week 12 liver histology): minimal or no balloon degeneration
mice with dysplastic nodules or HCC ([1]; week 18, CDE/Prog prevention arm N=15, CDE/Reg 8 of 23): none and no dysplasia or HCC
body weight ([2]; control diet, proglumide water vs untreated water): did not weigh more
liver histology ([2]; control diet, proglumide water vs untreated water, week 18): no evidence of NASH; also recorded: No differences
serum AST levels ([3]; CDE/Reg 12 weeks then CDE/Prog 6 weeks (Recovery)): significantly decreased
HCC or dysplastic nodules ([3]; CDE/Reg 12 weeks then CDE/proglumide 6 weeks, N=15, week 18): no evidence of HCC or dysplastic nodules and none
alkaline phosphatase levels [3, 6]: not prevented or reversed
serum total bilirubin [3, 6]: returned to the normal range; also recorded: decreased bilirubin
ALT serum levels ([3]; Recovery vs CDE/Reg for 18 full weeks): this difference was not significant
histologic fibrosis score ([3]; Recovery, week 18): able to decrease; also recorded: improved
histologic inflammation score ([3]; Recovery, week 18): able to decrease; also recorded: improved
liver blood tests and histology ([3]; proglumide for 6 weeks while continuing the CDE diet): improved significantly

Compound: Vitamin E
reversal of fibrosis [4]: neither compound statistically reversed fibrosis
